Source: ChEMBL document CHEMBL3271985, “Partition coefficients and surface areas of some alkylbenzenes” (J Med Chem, 1976)

experiment: Octanol-water partition coefficient, log P of the compound

Point of comparison: `c1ccc2c(c1)CCCC2`, logP 3.52. Against it:
- c1ccc(C2CCCCC2)cc1 — higher, 4.64
- Cc1ccc(C)cc1 [P-XYLENE] — lower, 3.15
- Cc1cccc(C)c1 [M-XYLENE] — lower, 3.2
- c1cc2ccc1CCc1ccc(cc1)CC2 — lower, 2.33
- c1ccc2c(c1)CCC2 — within 0.2 log units, 3.33
- c1ccc(C2CCCC2)cc1 — higher, 4.27
- c1ccc(C23CC4CC(CC(C4)C2)C3)cc1 — higher, 5.43
- CC(C)c1ccccc1 [ISOPROPYLBENZENE] — within 0.2 log units, 3.66
- CC(C)(C)c1ccccc1 [tert-Butylbenzene] — higher, 4.11
- Cc1ccccc1C [O-XYLENE] — lower, 3.12
